Measurements published in PMC10721898, “C5 methylation confers accessibility, stability and selectivity to picrotoxinin” (Nature Communications, 2023).
Entries after “also recorded” stand apart in the source; their conditions may differ.

What was measured:
[1] = Methanolysis with NaOMe in d4-methanol (1H NMR monitoring); format: physicochemical; conditions: for stability to catalytic NaOMe: 5 mol % NaOMe, 22 °C; for stability to catalytic NaOMe / competition experiment, 1:1 mixture of PXN and 5MePXN: d4-methanol; for concentration in competitive methanolysis: 5 mol% NaOMe in CD3OD; for competition experiment, 1:1 mixture of PXN and 5MePXN: 5 mol% NaOMe
From the text: Even addition of 2 equivalents NaOMe had no effect on 5MePXN (Fig. 3b and SI), far exceeding the tolerance of PXN. Thus, C5 methylation stabilized PXN against buffered water hydrolysis, acidic hydrolysis and alkaline methanolysis (Fig. 3a–d, see also ref. [21]). This profound stabilization highlighted the unique effects to reactivity imparted by C5 methylation. Furthermore, it opened a window into understanding differences in blood degradation of 5MePXN.
Supplementary Figure 4. Competitive methanolysis of PXN and 5MePXN under 5 mol% NaOMe in CD3OD.
(a) 0 min, (b) 10 min, (c) 30 min, (d) 60 min, (e) 100 min, (f) 140 min, (g) 280 min.
Supplementary Table 5. Concentration of each component in competitive methanolysis. […]
Supplementary Figure 5. Concentration of PXN, d5-33, d9-34 and 5MePXN vs. time (min) 3.4 Methanolysis of 5MePXN under different equivalent of NaOMe in CD3OD To a solution of 5MePXN (2.5 mg, 0.0082 mmol ) in CD 3OD (0.4 mL) in 5 mm NMR tube was added a solution of NaOMe in CD3OD (0.1, 0.2, 0.5, 0.8, 1.0, 1.5 and 2.0 equiv) at room temperature. The NMR tube was shaken bottom up 5 times to make solution homogenous, then measured by 1H NMR.

[2] = target: T1, Drosophila RDL (Drosophila melanogaster, UniProt P25123); assay: RDL receptors assay: two-electrode voltage clamp electrophysiology in Xenopus oocytes; format: cell-based
T1 construct: expressed in transfected cells; host or cells: Xenopus oocytes (Ecocyte, Austin, TX) microinjected with capped cRNA
T1 sequence (P25123 45-606): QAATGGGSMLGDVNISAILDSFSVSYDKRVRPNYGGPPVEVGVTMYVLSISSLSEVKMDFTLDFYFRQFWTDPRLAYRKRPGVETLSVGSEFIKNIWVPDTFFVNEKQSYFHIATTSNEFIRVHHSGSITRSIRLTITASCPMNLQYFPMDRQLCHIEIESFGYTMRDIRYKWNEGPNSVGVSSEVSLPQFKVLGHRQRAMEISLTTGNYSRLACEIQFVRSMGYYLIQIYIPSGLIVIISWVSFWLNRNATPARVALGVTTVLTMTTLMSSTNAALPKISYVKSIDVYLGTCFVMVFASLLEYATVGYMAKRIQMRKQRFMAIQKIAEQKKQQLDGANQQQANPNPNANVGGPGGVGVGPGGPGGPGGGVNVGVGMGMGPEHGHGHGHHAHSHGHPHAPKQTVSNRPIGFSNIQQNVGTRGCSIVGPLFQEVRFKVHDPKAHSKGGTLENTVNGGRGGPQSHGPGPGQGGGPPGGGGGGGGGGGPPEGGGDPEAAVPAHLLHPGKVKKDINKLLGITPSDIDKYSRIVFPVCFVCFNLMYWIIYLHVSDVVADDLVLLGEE
Protocol: 5. RDL receptors binding assay
The Drosophila RDL sequence (NP_01261616.1) was cloned into the pGH19 backbone via Gibson assembly for capped cRNA synthesis using the T7 mMessage mMachine kit (Invitrogen). cRNA samples were stored at - 80 °C until use. Ready to inject Xenopus oocytes were obtained from Ecocyte (Austin, TX) and microinjected using a Nanoinject III (Drummond Scientific) with 4 nL of cRNA (1 μg/μL). The oocytes were then incubated at 16 °C in ND96 storage solution (93.5 mM NaCl, 2 mM KCl, 1.8 mM CaCl 2·2H2O, 2 mM MgCl 2·6H2O, 5 mM HEPES at pH 7.5). Recording were made 1 -6 days post injection.
Electrophysiology experiments were performed using an automated two -electrode voltage clamp set -up (Roboocyte 2, Mutlichannel Systems). Recording head were filled with 3M KCl and gave resistan ce of 100-2000 kΩ in medium. Membrane potential was held at -60 mV and current signal was sampled at 20 kHz.
Experiments were performed at room temperature using Modified Barth’s Saline (MBS) (88 mM NaCl, 1 mM KCl, 2.4 mM NaHCO 3, 15 mM HEPES, 0.3 mM Ca(NO3)2, 0.41 mM CaCl 2, and 0.82 mM MgSO 4·7H2O at pH 7.4). Oocytes were perfused with MBS at 5 mL/min in all assays. GABA and all compounds were dissolved in MBS and a 0.1% DMSO negative control was utilized to correct for any solvent effect.
Initial block potential of each compound was assessed utilizing a pre -incubation method (MBS (30 sec), 10 μM GABA (15 sec), MBS wash (60 sec), compound (60 sec), compound + 10 μM GABA (15 sec), compound (60 sec), compound + 10 μM GABA (15 sec), MBS wash (60 sec) with 10 μM of each test compound. The maximum signal of the second co -application was compared to the initial GABA response to determine the % block and then standardized against the corresponding value of the 0.1% DMSO control. Dose responses were performed for any compound showing >50% block in the initial test using 10, 1, and 0.1 μM. The IC50 values were fit using an inhibitor vs response 4 -parameter fit (GraphPad Prism 8.1.2).
Supplementary Table 9. IC50 values of test compound
Compound IC50 (µM) Compound IC50 (µΜ)

[3] = Degradation in dilute sulfuric acid; format: physicochemical; conditions: for stability to acid: 1 mol % H2SO4 (Fig. 1b); for degradation in acid: warming, 1% H2SO4, 0.18 M, aqueous
[4] = D2O, 8.2 pH*; previously observed; cited from earlier work

## C=C(C)C1C2OC(=O)C1(C)C1(O)CC3OC34C(=O)OC2C41C (centres unmarked) [5MePXN, 5-methylpicrotoxinin]
[1]
  stability to catalytic NaOMe: did not observe any consumption
  competition experiment, 1:1 mixture of PXN and 5MePXN: completely persisted
[1]; 0 min
  concentration in competitive methanolysis: 3268 µM
[1]; 5 min
  concentration in competitive methanolysis: 3268 µM
[1]; 10 min
  concentration in competitive methanolysis: 3268 µM
[1]; 15 min
  concentration in competitive methanolysis: 3268 µM
[1]; 20 min
  concentration in competitive methanolysis: 3268 µM
[1]; 25 min
  concentration in competitive methanolysis: 3268 µM
[1]; 30 min
  concentration in competitive methanolysis: 3268 µM
[1]; 35 min
  concentration in competitive methanolysis: 3268 µM
[1]; 40 min
  concentration in competitive methanolysis: 3268 µM
[1]; 45 min
  concentration in competitive methanolysis: 3268 µM
[1]; 50 min
  concentration in competitive methanolysis: 3268 µM
[1]; 55 min
  concentration in competitive methanolysis: 3268 µM
[1]; 60 min
  concentration in competitive methanolysis: 3268 µM
[1]; 65 min
  concentration in competitive methanolysis: 3268 µM
[1]; 70 min
  concentration in competitive methanolysis: 3268 µM
[1]; 75 min
  concentration in competitive methanolysis: 3268 µM
[1]; 80 min
  concentration in competitive methanolysis: 3268 µM
[1]; 85 min
  concentration in competitive methanolysis: 3268 µM
[1]; 90 min
  concentration in competitive methanolysis: 3268 µM
[1]; 95 min
  concentration in competitive methanolysis: 3268 µM
[1]; 100 min
  concentration in competitive methanolysis: 3268 µM
[1]; 110 min
  concentration in competitive methanolysis: 3268 µM
[1]; 120 min
  concentration in competitive methanolysis: 3268 µM
[1]; 130 min
  concentration in competitive methanolysis: 3268 µM
[1]; 140 min
  concentration in competitive methanolysis: 3268 µM
[1]; 280 min
  concentration in competitive methanolysis: 3268 µM
[1]; 200 mol % (2 equivalents) NaOMe
  stability to excess NaOMe: had no effect; also recorded: stable
[2]
  IC50: 1710 nM
[3]
  stability to acid: stable
  degradation in acid: did not react at all
[4]
  t1/2 of degradation (pseudo-first order): 120 h

## C=C(C)[C@@H]1[C@H]2OC(=O)[C@@H]1[C@]1(O)C[C@H]3O[C@]34C(=O)O[C@H]2[C@]14C [PXN, picrotoxinin]
[1]
  stability to catalytic NaOMe: equimolar mixture of d5-methyl picrotoxate (d5-33) and d9-dimethyl picrotoxinin dicarboxylate (d9-34) in 6 h; also recorded: unstable
  competition experiment, 1:1 mixture of PXN and 5MePXN: completely degraded
[1]; 0 min
  concentration in competitive methanolysis: 3424.6 µM
[1]; 5 min
  concentration in competitive methanolysis: 2952 µM
[1]; 10 min
  concentration in competitive methanolysis: 2500 µM
[1]; 15 min
  concentration in competitive methanolysis: 2181 µM
[1]; 20 min
  concentration in competitive methanolysis: 1935 µM
[1]; 25 min
  concentration in competitive methanolysis: 1679 µM
[1]; 30 min
  concentration in competitive methanolysis: 1564 µM
[1]; 35 min
  concentration in competitive methanolysis: 1495 µM
[1]; 40 min
  concentration in competitive methanolysis: 1464 µM
[1]; 45 min
  concentration in competitive methanolysis: 1375 µM
[1]; 50 min
  concentration in competitive methanolysis: 1307 µM
[1]; 55 min
  concentration in competitive methanolysis: 1223 µM
[1]; 60 min
  concentration in competitive methanolysis: 1119 µM
[1]; 65 min
  concentration in competitive methanolysis: 1044 µM
[1]; 70 min
  concentration in competitive methanolysis: 962 µM
[1]; 75 min
  concentration in competitive methanolysis: 925.6 µM
[1]; 80 min
  concentration in competitive methanolysis: 856.1 µM
[1]; 85 min
  concentration in competitive methanolysis: 800.1 µM
[1]; 90 min
  concentration in competitive methanolysis: 773 µM
[1]; 95 min
  concentration in competitive methanolysis: 730.2 µM
[1]; 100 min
  concentration in competitive methanolysis: 704.7 µM
[1]; 110 min
  concentration in competitive methanolysis: 611.5 µM
[1]; 120 min
  concentration in competitive methanolysis: 560.5 µM
[1]; 130 min
  concentration in competitive methanolysis: 515 µM
[1]; 140 min
  concentration in competitive methanolysis: 466.6 µM
[1]; 280 min
  concentration in competitive methanolysis: 215.8 µM
[2]
  IC50: 800 nM
[3]
  stability to acid: unstable
  degradation in acid: clean conversion to picrotoxic acid (32) in 24 h
[4]
  t1/2 of degradation (pseudo-first order): 60 h
